Patent US9701711B2, “Modulators of protease activated receptors” (THE UNIVERSITY OF QUEENSLAND, priority 2010, dated 2017)

Assays:
PAR2 [1] = molecular target: T1, PAR2 (Homo sapiens, UniProt P55085); details: cited from earlier work
T1 sequence (P55085 26-397): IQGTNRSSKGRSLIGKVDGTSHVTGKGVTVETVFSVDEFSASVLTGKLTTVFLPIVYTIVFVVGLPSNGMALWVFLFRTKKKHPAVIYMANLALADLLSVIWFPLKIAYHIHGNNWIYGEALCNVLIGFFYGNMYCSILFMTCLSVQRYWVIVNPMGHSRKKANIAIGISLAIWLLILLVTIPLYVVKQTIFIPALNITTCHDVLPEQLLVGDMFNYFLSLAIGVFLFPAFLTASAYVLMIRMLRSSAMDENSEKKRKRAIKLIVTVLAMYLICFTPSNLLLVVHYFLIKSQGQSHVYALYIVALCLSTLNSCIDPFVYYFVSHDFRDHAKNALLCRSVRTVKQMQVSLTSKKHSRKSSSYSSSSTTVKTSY

PAR2 [2] = molecular target: T2, PAR2 (Rattus norvegicus, UniProt Q63645); experiment: Acute inflammatory model: PAR2-induced paw oedema; type: in vivo; details: Wistar rat, 10 mg/kg p.o. in olive oil, n=3; agonist 350 μg/paw 2 h after oral dose
T2 construct: from tissue; host or cells: paw of living male Wistar rats
T2 sequence (Q63645 26-397): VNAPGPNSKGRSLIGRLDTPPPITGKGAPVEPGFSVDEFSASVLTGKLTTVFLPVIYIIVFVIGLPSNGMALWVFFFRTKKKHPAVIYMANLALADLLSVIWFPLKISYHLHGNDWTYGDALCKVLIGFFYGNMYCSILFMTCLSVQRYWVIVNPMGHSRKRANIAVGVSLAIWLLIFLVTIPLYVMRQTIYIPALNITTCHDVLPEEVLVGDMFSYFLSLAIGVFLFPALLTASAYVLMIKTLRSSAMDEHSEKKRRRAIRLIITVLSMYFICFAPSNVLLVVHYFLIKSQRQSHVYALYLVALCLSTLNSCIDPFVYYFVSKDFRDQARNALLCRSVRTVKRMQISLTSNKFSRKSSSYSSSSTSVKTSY
Protocol: FIG. 9. Graphical representation of the ability of PAR2 antagonists 18, 30, 42, 44 to attenuate experimental paw oedema.
The methods used are based on those previously described (Kelso. E. B., et al. Arthritis Rheum 2007, 56, 765-71; Kelso. E. B., et al. J Pharmacol Exp Ther 2006, 316, 1017-24; and Vergnolle, N. J Immunol 1999, 163, 5064-9). Male Wistar rats (n=3 per group) are used. Briefly, rats are given either 5 or 10 mg/kg of a compound of the present invention (p.o. via gavage in olive oil, approx. 500 μL, weight adjusted). Control animals receive only olive oil (500 μL p.o.). Two hours later, the PAR2 agonist 2-furoyl-LIGRLO (350 μg/paw in saline, 100 μL) is injected into the plantar surface (i.pl.) of the right paw pad using a 30 G needle. The left paw acts as a control, receiving saline only. Paw thickness and width are measured after 30 minutes and hourly using digital calipers (World Precision Instruments, USA) and swelling is calculated in area (mm^2; thickness multiplied by width) and expressed as a percentage change from baseline of each individual paw. Results for exemplary PAR2 ligands 18, 30, 42 and 44 are illustrated in FIG. 9.

[3] = Stability in rat liver homogenate; type: in vitro ADME; details: 10 μM, 37° C., up to 180 minutes
Protocol: Blood and liver is collected form non-drug dosed male and female Wistar rats (aged 8-9 weeks, 200-250 g and 250-300 g respectively). Bloods are centrifuged at 8 K rpm for 5 min. Plasma are pooled and stored at −80° C. for later use. The rat livers are homogenized, diluted with three volumes of PBS, cloth filtered. The filtrate is used directly for stability studies.
Lach compound is dissolved in DMSO to make […] stock solution. 10 μL of the stock is diluted with either rat plasma or liver homogenate (490 μL) to make up a starting concentration of 10 μM (triplicates). The mixtures are vortexed and incubated at 37° C. At each time point of 0, 30, 60 and 180 minutes. 100 μL of the mixture is taken and diluted with 300 μL of acetonitrile. The mixture is vortexed and centrifuged, 350 μL of the liquid is transferred into a microfuge tube and concentrated using a rotational vacuum concentrator (Christ Beta-RVC, supplied by Quantum Scientific). 100 μL of acetonitrile water (9:1, v/v) is added to the residue, vortexed and immediately analysed by LCMS/MS. Data from these experiments are expressed as percent of peak area recorded from the LCMS/MS trace at time zero (t0).

PAR2 [4] = molecular target: T1, PAR2; experiment: PAR2 agonist inhibition (antagonism) by intracellular Ca2+ release in HT29 cells; type: cell-based; design: Agonists of Ca^2+ release in HT29 cells; endogenous in cells; host or cells: HT29 (human cell line, cultured per ATCC information); details: HT29 cells; 30 min pre-incubation, then PAR2 agonist (1 μM 2f-LIGRLO-NH2); read-out: IC50, inhibition of Ca2+ release in HT29 cells
Source text: The ability of the compounds of the present invention to activate PAR2 may be assessed via calcium mobilisation assays. It is appreciated that compounds that activate the release of intracellular calcium from one type of cell are agonists or partial agonists, while those that inhibit such release may be antagonists. […] The general assay protocols may vary slightly depending on the chosen cell line. In general, during cell culture passage, cell dissociation solution (CDS, Sigma Aldrich) is used to replace trypsin to dissociate cells from surface. Lipopolysaccharide (LPS) and trypsin are purchased from Sigma Aldrich. […] ELISA sets are purchased from BD Pharmingen (San Jose, Calif.) and cytokine array kits are purchased from RayBiotecho (Norcross, Ga.).
Cells are seeded overnight in 96-well black walled, clear bottomed, plate at approximately 2×10^4 to 4×10^5 cells per well. […] The cells are then washed twice with HBSS and transferred to a Polarstar spectrotluorimeter (BMG, Durham N.C.).
The cells are prepared as outlined above then treated with the “putative” antagonist 30 min prior to the addition of either trypsin or a synthetic agonist at a concentration equal to the agonists ED80.
The cells were then treated with 1 μM of the PAR2 agonist 2f-LIGRLO-NH2 (FIG. 2A. n=5) or 100 nM Trypsin (FIG. 2B, n=1). Each data point represents mean±SEM. Net changes in fluorescence were calculated as a percentage relative to the maximum response given 1 μM 2f-LIGRLO-NH2 or 100 nM Trypsin. Changes in fluorescence (% response) were plotted against logarithmic compound concentrations. The half maximal inhibitory concentration (IC50) values were derived from the dose response curve using a nonlinear regression curve in Graphpad Prism v5.

| Compound | Paw swelling induced by 2-f-LIGRLO-NH2 (PAR2 [2]) | Stability in rat liver homogenate [3] | IC50 (PAR2 [4]) [nM] | Selectivity for PAR2 over PAR1 (PAR2 [1]) | Agonist potency relative to SLIGRL-NH2 (PAR2 [1]; higher agonist potency than SLIGRL-NH2) [fold] |
| --- | --- | --- | --- | --- | --- |
| 2-furoyl-LIGRL-NH2 | – | – | – | selective for PAR2 over PAR1 | ~20 |
| CC[C@H](C)[C@H](NC(=O)[C@H](CC1CCCCC1)NC(=O)c1ccno1)C(=O)NCc1ccccc1OC [Compound 18, 5-isoxazoyl-Cha-Ile-aminomethyl-(2-methoxy)phenyl] | reduced the paw swelling | decomposed to varied degree | 500 ± 100 | – | – |
| CC[C@H](C)[C@H](NC(=O)[C@H](CC1CCCCC1)NC(=O)c1ccno1)C(=O)N1CCC(c2ccccc2)CC1 [Compound 30, 5-isoxazoyl-Cha-Ile-(4-phenyl)piperidine] | reduced the paw swelling | decomposed to varied degree | – | – | – |

Further lines, with some results ahead:

| Paw swelling induced by 2-f-LIGRLO-NH2 (PAR2 [2]) | Stability in rat liver homogenate [3] | IC50 (PAR2 [4]) [nM] | Compound | Selectivity for PAR2 over PAR1 (PAR2 [1]) | Agonist potency relative to SLIGRL-NH2 (PAR2 [1]; higher agonist potency than SLIGRL-NH2) [fold] |
| --- | --- | --- | --- | --- | --- |
| reduced the paw swelling | decomposed to varied degree | – | CC[C@H](C)[C@H](NC(=O)[C@H](CC1CCCCC1)NC(=O)c1cc(N)no1)C(=O)N1CCC2(C=Cc3ccccc32)CC1 [Compound 42, 5-(3-amino-isoxazoyl)-Cha-Ile-spiro[indene-1,4′-piperidine]] | – | – |
| reduced the paw swelling | decomposed to varied degree | 1000 | CO[C@H](C)[C@H](NC(=O)[C@H](CC1CCCCC1)NC(=O)c1ccno1)C(=O)N1CCC2(C=Cc3ccccc32)CC1 [Compound 44, 5-isoxazoyl-Cha-Thr(Me)-spiro[indene-1,4′-piperidine]] | – | – |
